For assay [1], the target named is Epithelial Cell Kinase (ECK) (Homo sapiens, UniProt P29317). Briefly: Inhibition of Epithelial Cell Kinase (ECK). The class given is biochemical. The conditions noted are these: biotinylated peptide substrate, pH 7.2.
Method: In this standard pharmacological test procedure, a biotinylated peptide substrate is first immobilized on neutravidin-coated microtiter plates. The test drug, the Epithelial Cell Kinase (ECK), Mg^++, sodium vanadate (a protein tyrosine phosphatase inhibitor), and an appropriate buffer to maintain pH (7.2) are then added to the immobilized substrate-containing microtiter wells. ATP is then added to initiate phosphorylation. After incubation, the assay plates are washed with a suitable buffer leaving behind phosphorylated peptide which is exposed to horse radish peroxidase (HRP)-conjugated anti-phosphotyrosine monoclonal antibody. The antibody-treated plates are washed again and the HRP activity in individual wells is quantified as a reflection of degree of substrate phosphorylation.
For assay [2], the target named is T1, Epidermal Growth Factor Receptor Kinase (EGF-R) (Homo sapiens, UniProt P00533).
T1 construct: EGFR cDNA encoding amino acids 645-1186 preceded by Met-Ala-(His)6; Met-Ala-(His)6 (N); made in house; host or cells: Sf9 insect cells, recombinant baculovirus vHcEGFR52
Briefly: Inhibition of Epidermal Growth Factor Receptor Kinase (EGF-R) Using Recombinant Enzyme. The conditions noted are these: for IC50: recombinant enzyme, RR-SRC peptide substrate. It counts as biochemical. How it is done:
Inhibition of Epidermal Growth Factor Receptor Kinase (EGF-R) Using Recombinant Enzyme
Representative test compounds were evaluated for their ability to inhibit the phosphorylation of the tyrosine residue of a peptide substrate catalyzed by the enzyme epidermal growth factor receptor kinase. The peptide substrate (RR-SRC) has the sequence arg-arg-leu-ile-glu-asp-ala-glu-tyr-ala-ala-arg-gly. The enzyme used in this test procedure is the His-tagged cytoplasmic domain of EGFR. A recombinant baculovirus (vHcEGFR52) was constructed containing the EGFR cDNA encoding amino acids 645-1186 preceded by Met-Ala-(His)6. Sf9 cells in 100 mm plates were infected at an moi of 10 pfu/cell and cells were harvested 48 h post infection. A cytoplasmic extract was prepared using 1% Triton X-100 and applied to Ni-NTA column. After washing the column with 20 mM imidazole, HcEGFR was eluted with 250 mM imidazole (in 50 mM Na2 HPO4, pH 8.0, 300 mM NaCl). Fractions collected were dialyzed against 10 mM HEPES, pH 7.0, 50 mM NaCl, 10% glycerol, 1 ug/mL antipain and leupeptin and 0.1 mM Pefabloc SC. The protein was frozen in dry ice/methanol and stored -70° C.
Test compounds were made into 10 mg/mL stock solutions in 100% dimethylsulfoxide (DMSO). Prior to experiment, stock solutions were diluted to 500 uM with 100% DMSO and then serially diluted to the desired concentration with HEPES buffer (30 mM HEPES pH 7.4).
For the enzyme reaction, 10 uL of each inhibitor (at various concentrations) were added to each well of a 96-well plate. To this was added 3 uL of enzyme (1:10 dilution in 10 mM HEPES, pH 7.4 for final conc. of 1:120). This was allowed to sit for 10 min on ice and was followed by the addition of 5 ul peptide (80 uM final conc.), 10 ul of 4×Buffer (Table A), 0.25 uL ^33 P-ATP and 12 uL H2 O. The reaction was allowed to run for 90 min at room temperature and was followed by spotting the entire volume on to precut P81 filter papers. The filter discs were washed 2× with 0.5% phosphoric acid and radioactivity was measured using a liquid scintillation counter. […]
The inhibition data for representative compounds of the invention are shown below in TABLE 1. […] The % inhibition of the test compound was determined for at least three different concentrations and the IC50 value was evaluated from the dose response curve. The % inhibition was evaluated with the following formula: […]
where CPM(drug) is in units of counts per minute and is a number expressing the amount of radiolabled ATP (γ-^33 P) incorporated onto the RR-SRC peptide substrate by the enzyme after 90 minutes at room temperature in the presence of test compound as measured by liquid scintillation counting. CPM(control) is in units of counts per minute and was a number expressing the amount of radiolabled ATP (γ-^33 P) incorporated into the RR-SRC peptide substrate by the enzyme after 90 minutes at room temperature in the absence of test compound as measured by liquid scintillation counting. The CPM values were corrected for the background counts produced by ATP in the absence of the enzymatic reaction.

Assay [3] deals with T2, Kinase insert Domain containing Receptor (KDR) (Homo sapiens, UniProt P35968).
T2 construct: KDR; the Catalytic Domain of the VEGF Receptor
Briefly: Inhibition of Kinase insert Domain containing Receptor (KDR; the catalytic domain of the VEGF receptor). It counts as biochemical. The conditions noted are these: substrate E:Y 4:1, pH 7.2.
From the text: Inhibition of Kinase Insert Domain Containing Receptor (KDR; the Catalytic Domain of the VEGF Receptor)
In this standard pharmacological test procedure, KDR protein is mixed, in the presence or absence of a inhibitor compound, with a substrate peptide to be phosphorylated (a copolymer of glutamic acid and tyrosine, E:Y: 4:1) and other cofactors such as Mg^++ and sodium vanadate (a protein tyrosine phosphatase inhibitor) in an appropriate buffer to maintain pH (7.2). ATP and a radioactive tracer (either P^32 -or P^33 -labeled ATP) is then add to initiate phosphorylation. After incubation, the radioactive phosphate associated with the acid-insoluble fraction of the assay mixture is then quantified as reflection of substrate phosphorylation.

The test system of assay [4] is human colon carcinoma SW620. The conditions noted are these: 3 mg/kg/dose IP days 1-20, Day 7.
Method: In Vivo Inhibition of the Growth of Human Colon Carcinoma SW620
Human colon carcinoma SW620 cells (American Type Culture Collection, Rockville, Md. #CCL-227) were grown in vitro as described above. BALB/c nu/nu female mice (Charles River, Wilmington, Mass.) were used in this in vivo standard pharmacological test procedure. A unit of 7×10^6 cells were injected SC into mice. When tumors attained a mass of between 80 and 120 mg, the mice were randomized into treatment groups (day zero). Mice were treated IP once a day on days 1 through 20 post staging with doses of either 30, 10, 3 or 1 mg/kg/dose of the compound to be evaluated in 0.2% Klucel. Control animals received vehicle only. Tumor mass was determined every 7 days [(length×width^2)/2] for 28 days post staging. Relative tumor growth (Mean tumor mass on days 7, 14, 21, and 28 divided by the mean tumor mass on day zero) is determined for each treatment group. Statistical analysis (Student-t-test) of log relative tumor growth compares treated verses control group. A p-value (p≤0.05) indicates a statistically significant reduction in relative tumor growth of treated group compared to the vehicle control.
The test system of assay [5] is MDA-MB-435. Briefly: Inhibition of cancer cell growth as measured by cell number, MDA-MB-435. The class given is cell-based. As to conditions: Homo sapiens, MDA-MB-435, 48 h, MDA-MB-435, 48 hours exposure. How it is done:
(§1) Inhibition of Cancer Cell Growth as Measured by Cell Number […] […] After 48 hours exposure to test compounds, cells were fixed with trichloroacetic acid, and stained with Sulforhodamine B. After washing with trichloroacetic acid, bound dye was solubilized in 10 mM Tris base and optical density was determined using plate reader. Under conditions of the assay the optical density is proportional to the number of cells in the well. […] The test procedure is described in details by Philip Skehan et. al, J.Natl. Canc. Inst., 82, 1107-1112 (1990). […] Information about some of the cell lines used in these test procedures is available from the American Type Tissue Collection: Cell Lines and Hybridomas, 1994 Reference Guide, 8th Edition.

Assay [6] relates to 3T3/c-erbb2. Briefly: Inhibition of cancer cell growth as measured by cell number, 3T3/c-erbb2. It counts as cell-based. The conditions noted are these: 3T3/c-erbb2, 48 hours exposure. The method, then: as §1
Assay [7] concerns SK-BR3. Briefly: Inhibition of cancer cell growth as measured by cell number, SK-BR3. It counts as cell-based. As to conditions: Homo sapiens, SK-BR-3, 48 h, SK-BR3, 48 hours exposure. How it is done:
as §1

Assay [8] concerns 3T3. Briefly: Inhibition of cancer cell growth as measured by cell number, 3T3. It counts as cell-based. The conditions noted are these: Mus musculus, NIH3T3; 3T3, 48 hours exposure. How it is done:
as §1

Assay [9] concerns A431. Briefly: Inhibition of cancer cell growth as measured by cell number, A431. The class given is cell-based. The conditions noted are these: Homo sapiens, A-431, 48 h, A431, 48 hours exposure. How it is done: as §1
The test system of assay [10] is SW620. Briefly: Inhibition of cancer cell growth as measured by cell number, SW620. It counts as cell-based. As to conditions: Homo sapiens, SW-620, 48 h, SW620, 48 hours exposure. How it is done: as §1
In assay [11] the target is Mitogen Activated Protein Kinase (Mek-Erk). Briefly: Mitogen Activated Protein Kinase (MAPK) assay, coupled Mek-Erk. It counts as biochemical, human. As to conditions: MBP or Myc peptide substrate, pH 7.4. How it is done:
Mitogen Activated Protein Kinase (MAPK) Assay
To evaluate inhibitors of the MAP (mitogen activated protein) kinase a two component coupled standard pharmacological test procedure, which measures phosphorylation of a serine/threonine residue in an appropriate sequence in the substrate in the presence and absence of a putative inhibitor, was used. Recombinant human MEK 1 (MAPKK) was first used to activate recombinant human ERK2 (MAPK) and the activated MAPK (ERK) was incubated with substrate (MBP peptide or MYC peptide) in the presence of ATP, Mg^+2 and radiolabeled ^33 P ATP. The phosphorylated peptide was captured on a P 81 phosphocellulose filter (paper filter or embedded in microtiter plate) washed and counted by scintillation methods.
The peptide substrates used in the assay are MBP, peptide substrate ([…]), or synthetic Myc substrate, ([…]·5 TFA. The recombinant enzymes used were prepared as GST fusion proteins of human ERK 2 and human MEK 1. Inhibitor samples were prepared as 10×stocks in 10% DMSO and an appropriate aliquot was used to deliver either 10 ug/ml for a single point screening dose or 100, 10, 1, and 0.1 uM final concentration for a dose response curve. Final DMSO concentrations were less than or equal to 1%.
The reaction was run as follows in 50 mM Tris kinase buffer, pH 7.4 in a reaction volume of 50 ul. The appropriate volume of kinase buffer and inhibitor sample was added to the tube. Appropriate dilution of enzyme was delivered to give 2-5 ug recombinant MAPK (Erk ) per tube. The inhibitor was incubated with MAPK (Erk) for 30 min at 0 deg. C. Recombinant Mek (MAPKK) (0.5-2.5 ug) or fully activated Mek (0.05-0.1 units) was added to activate the Erk and incubated for 30 min at 30° C. Then substrate and gamma ^33 P ATP was were added to give a final concentration of 0.5-1 mM MBPP or 250-500 uM Myc; 0.2-0.5 uCi gamma P 33 ATP/tube; 50 μM ATP final concentration. Samples were incubated at 30° C. for 30 minutes and the reaction was stopped by adding 25 μl of ice cold 10% TCA. After samples were chilled on ice for 30 min, 20 μl of sample was transferred onto P 81 phosphocellulose filter paper or appropriate MTP with embedded P 81 filter. Filter papers or MTP were washed 2 times with a large volume of 1% acetic acid, then 2 times with water. The filters or MTP were briefly air dried before addition of scintillant and samples were counted in the appropriate scintillation counter set up for reading ^33 P isotope. Samples included a positive control (activated enzyme plus substrate); a no enzyme control; a no substrate control; samples with different concentrations of putative inhibitor; and samples with reference inhibitors (other active compounds or non-specific inhibitors such as staurosporine or K252 B).
The raw data was captured as cpm. Sample replicates were averaged and corrected for background count. Mean cpm data was tabulated by group and % inhibition by a test compound was calculated as (corrected cpm control-corrected. cpm sample/control)×100=% inhibition. […] The results obtained for representative compounds of this invention are listed in TABLE 2 where there may be separate entries for the same compound; this is an indication that the compound was evaluated more than one time.

≈ marks a conversion by molar mass, not a printed value. Where “and” joins values, the source holds several entries; their conditions need not be identical. Equal entries are not always repeated.

In general, IC50 refers to the midpoint of a concentration-inhibition curve.

T1 sequence (P00533 669-1210): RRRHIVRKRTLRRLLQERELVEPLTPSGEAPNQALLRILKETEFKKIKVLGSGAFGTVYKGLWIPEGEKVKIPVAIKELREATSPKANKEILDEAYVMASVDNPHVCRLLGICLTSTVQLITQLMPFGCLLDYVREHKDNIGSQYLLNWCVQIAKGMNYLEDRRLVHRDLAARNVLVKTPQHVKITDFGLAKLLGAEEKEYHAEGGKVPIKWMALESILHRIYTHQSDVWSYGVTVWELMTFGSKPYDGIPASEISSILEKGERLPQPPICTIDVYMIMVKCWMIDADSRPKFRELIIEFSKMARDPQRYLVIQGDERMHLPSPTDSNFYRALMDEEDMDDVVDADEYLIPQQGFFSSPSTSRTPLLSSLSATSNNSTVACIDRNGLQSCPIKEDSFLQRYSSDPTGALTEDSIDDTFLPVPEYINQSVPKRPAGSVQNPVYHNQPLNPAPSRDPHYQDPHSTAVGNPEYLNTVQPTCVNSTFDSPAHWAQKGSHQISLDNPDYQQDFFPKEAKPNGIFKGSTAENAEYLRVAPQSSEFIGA
Epithelial Cell Kinase (ECK), sequence (P29317 24-976): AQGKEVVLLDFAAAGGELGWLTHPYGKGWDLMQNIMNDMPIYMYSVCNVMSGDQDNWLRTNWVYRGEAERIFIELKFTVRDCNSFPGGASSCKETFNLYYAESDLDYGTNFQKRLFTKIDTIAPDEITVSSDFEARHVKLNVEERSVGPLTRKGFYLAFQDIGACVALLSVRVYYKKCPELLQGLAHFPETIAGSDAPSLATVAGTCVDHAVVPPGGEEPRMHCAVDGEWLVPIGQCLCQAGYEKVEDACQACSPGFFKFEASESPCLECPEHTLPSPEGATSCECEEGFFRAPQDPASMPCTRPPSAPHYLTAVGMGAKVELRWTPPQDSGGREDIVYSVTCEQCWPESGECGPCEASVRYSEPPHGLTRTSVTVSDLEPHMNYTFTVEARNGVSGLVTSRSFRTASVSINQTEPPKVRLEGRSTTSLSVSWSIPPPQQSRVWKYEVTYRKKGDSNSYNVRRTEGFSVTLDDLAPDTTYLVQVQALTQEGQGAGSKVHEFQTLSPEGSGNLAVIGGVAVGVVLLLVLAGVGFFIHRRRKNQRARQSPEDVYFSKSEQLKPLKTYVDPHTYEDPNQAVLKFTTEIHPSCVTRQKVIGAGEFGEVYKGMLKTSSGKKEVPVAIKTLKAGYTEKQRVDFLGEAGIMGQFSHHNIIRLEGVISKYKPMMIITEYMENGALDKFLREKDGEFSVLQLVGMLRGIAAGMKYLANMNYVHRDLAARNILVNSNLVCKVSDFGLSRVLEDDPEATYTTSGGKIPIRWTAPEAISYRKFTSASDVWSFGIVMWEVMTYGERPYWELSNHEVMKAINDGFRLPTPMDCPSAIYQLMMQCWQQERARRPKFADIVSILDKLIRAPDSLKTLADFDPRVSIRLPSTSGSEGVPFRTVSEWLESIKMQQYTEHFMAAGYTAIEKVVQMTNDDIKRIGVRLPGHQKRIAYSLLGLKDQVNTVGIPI
T2 sequence (P35968 834-1162 limits assumed): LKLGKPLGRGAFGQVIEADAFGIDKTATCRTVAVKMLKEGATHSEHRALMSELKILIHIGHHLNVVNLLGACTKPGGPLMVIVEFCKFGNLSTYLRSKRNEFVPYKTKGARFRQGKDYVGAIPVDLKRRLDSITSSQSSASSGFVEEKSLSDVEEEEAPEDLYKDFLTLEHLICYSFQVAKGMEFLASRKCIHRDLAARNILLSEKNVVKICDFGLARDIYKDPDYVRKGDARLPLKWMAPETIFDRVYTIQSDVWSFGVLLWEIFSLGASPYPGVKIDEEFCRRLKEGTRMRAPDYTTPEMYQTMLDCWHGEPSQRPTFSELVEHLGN

Turning to `CCOc1cc2ncc(C#N)c(Nc3ccc4c(c3)NCC4)c2cc1OCC` [Example 96, 4-(2,3-Dihydro-1H-indol-6-ylamino)-6,7-diethoxy-quinoline-3-carbonitrile], the half-maximal inhibitory concentration (IC50) was greater than 53.5 µM in assay [1], greater than 10 µM in [2] and 8.02 µM in assay [3]. In addition, the inhibition at 0.5 µM in assay [2] (read-out: % Inh @ 0.5 μM) turned out to be 6%.
Regarding `CCOc1cc2ncc(C#N)c(Nc3ccc4c(c3)OCO4)c2cc1OCC` [Example 98, 4-(Benzo[1,3]dioxol-5-ylamino)-6,7-diethoxy-quinoline-3-carbonitrile], the IC50 in assay [3] is 2.65 µM.
For `CCOc1cc2ncc(C#N)c(Nc3ccc4cn[nH]c4c3)c2cc1OCC` [Example 99, 6,7-Diethoxy-4-(1H-indazol-6-ylamino)-quinoline-3-carbonitrile], the “Relative Tumor Growth Day 7” value in assay [4] is 3.80.
Consider `CCOc1cc2ncc(C#N)c(Nc3ccc4cc[nH]c4c3)c2cc1OCC` [Example 101, 6,7-Diethoxy-4-(1H-indol-6-ylamino)-quinoline-3-carbonitrile], for which, in [2], the IC50 was greater than 1 µM.
Take `CCOc1cc2ncc(C#N)c(Nc3ccc4c(c3)OCCO4)c2cc1OCC` [Example 105, 4-(2,3-Dihydro-benzo[1,4]dioxin-6-ylamino)-6,7-diethoxy-quinoline-3-carbonitrile]: the IC50 in [5] is 0.235 µg/mL (≈ 0.6 µM); in [6], 0.375 µg/mL (≈ 0.958 µM); in [1] it was greater than 51.1 µM; in assay [7], 0.281 µg/mL (≈ 0.718 µM); in [8], 0.853 µg/mL (≈ 2.18 µM); in assay [3], 76.6 µM. Moreover, the IC50 in [9] came out at 0.27 µg/mL (≈ 0.69 µM); in assay [10], 0.411 µg/mL (≈ 1.05 µM).
The molecule `CCOc1cc2ncc(C#N)c(Nc3ccc4c(c3)CCC4)c2cc1OCC` [Example 108, 6,7-Diethoxy-4-(indan-5-ylamino)-quinoline-3-carbonitrile] returned an IC50 in assay [6] of 0.198 µg/mL (≈ 0.53 µM).
For the molecule `CCOc1cc2ncc(C#N)c(Nc3ccc4c(c3)CCC4=O)c2cc1OCC` [Example 110, 6,7-Diethoxy-4-(1-oxo-indan-5-ylamino)-quinoline-3-carbonitrile], the IC50 was 0.028 µg/mL (≈ 0.0723 µM) in assay [5]; 0.0311 µg/mL (≈ 0.0803 µM) in [6]; 0.155 µM and 0.036 µM in assay [1]; 0.0281 µg/mL (≈ 0.0725 µM) in [7]; 0.0923 µg/mL (≈ 0.238 µM) in [8]; greater than 77.4 µM in assay [3]. The IC50 in assay [9] is 0.0244 µg/mL (≈ 0.063 µM); in assay [11] it was > 100 µM and 50 µM; in [10] it was 0.0181 µg/mL (≈ 0.0467 µM).
Consider `CCOc1cc2ncc(C#N)c(Nc3ccc4c(c3)C(=O)OC4)c2cc1OCC` [Example 111, 6,7-Diethoxy-4-(3-oxo-1,3-dihydro-isobenzofuran-5-ylamino)-quinoline-3-carbonitrile], for which the IC50 in assay [2] was greater than 1 µM; in assay [11] it was greater than 100 µM.
As for `CCOc1cc2ncc(C#N)c(Nc3ccc4cn[nH]c4c3)c2cc1OC` [Example 115, 7-Ethoxy-4-(indazol-6-ylamino)-6-methoxy-quinoline-3-carbonitrile], the IC50 is greater than 0.5 µM in assay [2] and 25 µM in [11].
In the same order, the values of `CCOc1cc2ncc(C#N)c(Nc3ccc4c(c3)C(=O)NCC(=O)N4C)c2cc1OCC` [Example 127, 6,7-Diethoxy-4-(1-methyl-2,5-dioxo-2,3,4,5-tetrahydro-1H-benzo[e][1,4]diazepin-7-ylamino)-quinoline-3-carbonitrile] are greater than 1 µM and greater than 100 µM.

Values taken from patent US6288082A, “Substituted 3-cyanoquinolines” (priority 1999, dated 2001).
